Test system: adjuvant-induced arthritis
Test: Adjuvant-induced arthritis (AIA) model
Experimental: METHOD. Adjuvant-Induced Arthritis (AIA) Model. Female Lewis rats are fed a folate-deficient diet (Harlan Teklad, Indianapolis, Ind.) for 9-10 days prior to arthritis induction. The adjuvant-induced arthritis (AIA) is induced by intradermal inoculation (at the base of tail) of 0.4-0.5 mg of heat-killed Mycobacteria butyricum (BD Diagnostic Systems, Sparks, Md.) in 100 μL light mineral oil (Sigma). Ten days after arthritis induction, paw edema (degree of arthritis) in rats is assessed using a modified arthritis scoring system: 0=no arthritis; 1=swelling in one type of joint; 2=swelling in two types of joint; 3=swelling in three types of joint; 4=swelling of the entire paw. A total score for each rat is calculated by summarizing the scores for each of the four paws, giving a maximum score of 16 for each rat. On Day 10 post arthritis induction, rats with a total arthritis score of […] were removed from the study and the remaining rats are distributed evenly across the control and treatment groups (n=5 for all groups except that n=2-3 for healthy controls). All treatments are started on Day 10 unless indicated otherwise. Rat paws are also evaluated radiographically to assess and determine bone damage.
EXAMPLE. […] Starting 9 days after induction, rats with developing AIA are distributed according to arthritis scores into three groups (n=5): (1) the untreated AIA control, (2) the EC1669 treated group, and (3) the EC1669 plus EC0923 competition group. All treatments last for 2 consecutive weeks. The animals in the AIA control group are left untreated. The animals in the EC1669 treatment group are given twice-a-week subcutaneous doses of EC1669 at a dosage of 375 nmol/kg. The animals in the EC1669 plus EC0923 group are given twice-a-week subcutaneous doses of EC1669 at a dosage of 375 nmol/kg in conjunction to EC0923 at a dosage of 187.5 μmol/kg.
EXAMPLE. […] CellCept is a prodrug of mycophenolic acid, an immunosuppressant drug used to prevent organ rejection in transplantation. CellCept is activated in vivo and releases its active product that can inhibit T cell proliferation and interfere with leukocyte adhesion to endothelial cells. To test the combination effect of EC1669 and CellCept, rats with developing AIA are distributed according to arthritis scores into four groups (n=5): (1) the untreated AIA control, (2) the EC1669 treated group, (3) the CellCept treated group, and (4) the EC1669 and CellCept combination group. All treatments start on day 9 after AIA induction and last 2 consecutive weeks. The animals in the AIA control group are untreated. The animals in the EC1669 treatment group are given weekly subcutaneous doses of EC1669 at a dosage of 1000 nmol/kg. The animals in the CellCept treatment group are given daily oral doses of CellCept at a dosage of 30 mg/kg, 5 days per week. The animals in the EC1669 and CellCept combination treatment group are given weekly subcutaneous doses of EC1669 at a dosage of 1000 nmol/kg and daily oral doses of CellCept at a dosage of 30 mg/kg, 5 days per week.

[1] = 375 nmol/kg s.c. twice-a-week, 2 weeks

`N=c1[nH]c(N)nc2ncc(CNc3ccc(C(=O)N[C@@H](CCC(=O)NNC(=O)OCCSSC[C@@H](NC(=O)[C@H](CCC(=O)NC[C@H](O)[C@@H](O)[C@H](O)[C@H](O)CO)NC(=O)[C@@H](CCC(=O)O)NC(=O)[C@H](CCC(=O)NC[C@H](O)[C@@H](O)[C@H](O)[C@H](O)CO)NC(=O)[C@@H](CCC(=O)O)NC(=O)[C@H](CCC(=O)NC[C@H](O)[C@@H](O)[C@H](O)[C@H](O)CO)NC(=O)CC[C@H](NC(=O)c4ccc(NCc5cnc6nc(N)[nH]c(=O)c6n5)cc4)C(=O)O)C(=O)O)C(=O)O)cc3)nc12` [EC1669] was tested, and the “reduction in paw swelling” value (250 nmol/kg, biw) was 64%, the “whole animal toxicity (body weight)” value (375 nmol/kg) was “does not exhibit whole animal toxicity” and the “alleviation of bone damage compared to control” value [1] was ~80%. For the same compound, the “alleviation of paw swelling compared to control” value [1] was ~80%, the “reduction in paw swelling” value (500 nmol/kg, biw) was 81% and the “reduction in paw swelling” value (1000 nmol/kg, siw) was 44%. For the same compound, the “anti-arthritic activity with folate competitor EC0923” value (EC0923 187.5 μmol/kg co-dosed) was “competable (blocked)”.

From patent publication US20200121801A1, “DRUG DELIVERY CONJUGATES CONTAINING UNNATURAL AMINO ACIDS AND METHODS FOR USING” (priority 2012, published 2020)
